Marks after values point to notes of the source that are not given here.
Legend:
[1] = tested on: insulin receptor (INR) mRNA; test: Hepatic gene expression by quantitative real-time PCR: insulin receptor; details: MET 150 mg/kg
Method: (§3) Total RNA was isolated from rat livers using an Rneasy Mini Kit according to the manufacturer's protocol (Qiagen). First-strand cDNA synthesis from 1 µg total RNA was done employing a reverse transcriptase kit and oligo(dT) (Thermo Scientific). PTP1B, phosphoenolpyruvate carboxykinase (PEPCK), glucose 6-phosphatase (G6Pase), GLUT2 (Slc2a2) and insulin receptor (INR) target genes were amplified by quantitative real-time-PCR using specific primers (Supplementary Table S1). cDNA was added to a Quantifast SYBR Green qPCR Master Mix (Qiagen) containing 30 pg/ml of each primer. […] The β-actin gene was amplified in the same reaction as a reference gene to normalise data. Relative gene expression was calculated using the Livak & Schmittgen method([42]).

[2] = tested on: streptozotocin–nicotinamide-induced type 2 diabetic rats; test: Pancreatic oxidative stress biomarkers in STZ–NA diabetic rats; type: in vivo, Wistar rats; details: MET 150 mg/kg
Method: (§1) NA was dissolved in normal saline.
(§2) At the end of the 28th day, blood samples were withdrawn from the retro-orbital venous plexus under light ether anaesthesia into two sampling tubes, one containing Na-EDTA at day 28 post-medication for the estimation of Hb([22]). The second blood sample was centrifuged at 3500 rpm for 15 min to separate sera for the estimation of insulin level([23]). Other biochemical parameters such as alanine transaminase and aspartate transaminase activities in serum were measured([24]). Serum levels of total bilirubin([25]), total protein([26]), TAG([27]), total cholesterol([28]), HDL-cholesterol([29]) and LDL-cholesterol([30]) were measured using commercially available kits (Quimica Clinica). Preparation of pancreatic homogenate was done according to Mansour et al.([31]). The activities of superoxide dismutase (SOD), glutathione peroxidase (GPx) and catalase (CAT) in hepatic and pancreatic tissues were estimated([32]–[34]), respectively. Reduced glutathione (GSH)([35]), lipid peroxidation products were estimated by determining malondialdehyde (MDA) content in the hepatic and pancreatic tissue([36]) and GLUT2 was determined using commercial diagnostic kits (Chema Diagnostica)([37]).

[3] = tested on: glucose 6-phosphatase (G6Pase) mRNA; test: Hepatic gene expression by quantitative real-time PCR: G6Pase; details: MET 150 mg/kg
Method: as §3

[4] = tested on: phosphoenolpyruvate carboxykinase (PEPCK) mRNA; test: Hepatic gene expression by quantitative real-time PCR: PEPCK; details: MET 150 mg/kg
Method: as §3

GLUT2 gene (Slc2a2) mRNA = test: Hepatic gene expression by quantitative real-time PCR: Slc2a2; details: liver mRNA; MET 150 mg/kg
Method: as §3

[5] = tested on: streptozotocin–nicotinamide-induced type 2 diabetic rats; test: Fasting blood glucose, insulin and Hb in STZ–NA diabetic rats; type: in vivo, Wistar rats; details: MET 150 mg/kg orally; 4 weeks
Method: as §1, §2

PTP1B mRNA = test: Hepatic gene expression by quantitative real-time PCR: PTP1B; details: liver mRNA; MET 150 mg/kg
Method: as §3

[6] = tested on: streptozotocin–nicotinamide-induced type 2 diabetic rats; test: Serum hepatic markers, bilirubin and total protein in STZ–NA diabetic rats; type: in vivo, Wistar rats; details: MET 150 mg/kg orally, 4 weeks
Method: as §1, §2

GLUT2 = GLUT2 protein levels in liver and pancreas of diabetic rats; type: in vivo, Wistar rats; details: MET 150 mg/kg
Method: as §1, §2

Structure (SMILES) | melting point [°C] | Effect of STZ on hepatic insulin receptor mRNA levels [1] | Effect on MDA level in the pancreas of diabetic rats [2] | Increase in pancreatic GPx compared with diabetic control rats [2] [%] | Increase in pancreatic GSH content [2] [%] | Expression of G6Pase in the liver [3] | Expression of PEPCK in the liver [4] | Slc2a2 expression, % of the normal level (GLUT2 gene (Slc2a2) mRNA) [%] | Hb [5] | PTP1B expression level, % of the levels in the diabetic group (PTP1B mRNA) | Total bilirubin [6] | Total protein [6] | GLUT2 in the liver compared with the diabetic control (GLUT2) | GLUT2 in the pancreas compared with the diabetic control (GLUT2)
CC1(C)CC[C@]2(C)CC[C@]3(C)C(=C[C@H](O)C4[C@@]5(C)CC[C@H](O)[C@@](C)(C(=O)O)C5CC[C@]43C)C2C1 (stereo partly drawn) [Compound F3, 3β,11β-dihydroxyolean-12-en-23-oic acid] | 308 to 309 |  |  |  |  |  |  |  |  |  |  |  |  | 
CN(C)C(=N)N=C(N)N [MET, metformin] |  | reversed | did not significantly affect | 63 | 46 | decreased expression | decreased expression | 92 | 135† g/l | approximately 75% | 4† mg/l | 114* g/l | significantly increased | significantly increased

— paper PMC6984126, “Ficus deltoidea extract down-regulates protein tyrosine phosphatase 1B expression in a rat model of type 2 diabetes mellitus: a new insight into its antidiabetic mechanism” (Journal of Nutritional Science, 2020)
